In assay [1] the target is T1, RET V804L (Homo sapiens, UniProt P07949, V804L).
T1 construct: purchased ProQinase 1096-0000-1
Kind of assay: RET V804L Gatekeeper Mutant Assay at KM (Caliper electrophoretic mobility shift). In kind it is biochemical. The settings on record: 10 μM ATP, 25° C., 120 minutes.

Assay [2] addresses T2, wild type RET (Homo sapiens, UniProt P07949).
T2 construct: purchased ProQinase 1090-0000-1
Kind of assay: RET Wild Type Assay at KM (Caliper electrophoretic mobility shift). The conditions noted are these: 25 μM ATP, 25° C., 120 minutes. In kind it is biochemical.

T1 sequence (P07949 29-1114 V804L): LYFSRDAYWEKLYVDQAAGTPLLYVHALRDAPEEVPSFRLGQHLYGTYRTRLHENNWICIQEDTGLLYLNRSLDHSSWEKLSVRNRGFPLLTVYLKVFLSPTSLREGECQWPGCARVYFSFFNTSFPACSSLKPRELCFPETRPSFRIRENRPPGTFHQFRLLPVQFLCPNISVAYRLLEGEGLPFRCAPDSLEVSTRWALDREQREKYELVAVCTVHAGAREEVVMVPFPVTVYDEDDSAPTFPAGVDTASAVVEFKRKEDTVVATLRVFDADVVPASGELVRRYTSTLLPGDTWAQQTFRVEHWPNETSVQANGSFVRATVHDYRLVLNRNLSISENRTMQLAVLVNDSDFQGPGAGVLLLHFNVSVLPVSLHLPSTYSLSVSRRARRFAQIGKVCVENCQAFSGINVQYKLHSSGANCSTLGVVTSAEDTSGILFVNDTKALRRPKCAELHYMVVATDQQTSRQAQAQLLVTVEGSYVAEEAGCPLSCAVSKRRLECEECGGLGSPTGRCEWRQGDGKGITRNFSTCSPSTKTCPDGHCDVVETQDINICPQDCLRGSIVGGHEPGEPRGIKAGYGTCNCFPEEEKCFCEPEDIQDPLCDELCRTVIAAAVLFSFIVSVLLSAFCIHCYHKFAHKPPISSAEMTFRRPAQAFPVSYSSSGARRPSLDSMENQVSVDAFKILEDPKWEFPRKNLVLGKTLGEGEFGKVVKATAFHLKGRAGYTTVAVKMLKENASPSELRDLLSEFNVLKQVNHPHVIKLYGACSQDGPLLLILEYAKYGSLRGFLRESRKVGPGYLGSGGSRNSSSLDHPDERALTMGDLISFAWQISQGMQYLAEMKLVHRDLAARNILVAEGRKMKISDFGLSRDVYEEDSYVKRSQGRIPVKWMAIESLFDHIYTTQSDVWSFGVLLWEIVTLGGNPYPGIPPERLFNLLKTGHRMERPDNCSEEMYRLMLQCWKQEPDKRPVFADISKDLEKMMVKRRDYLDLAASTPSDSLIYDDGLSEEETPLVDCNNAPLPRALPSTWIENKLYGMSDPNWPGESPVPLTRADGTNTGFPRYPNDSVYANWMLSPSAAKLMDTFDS
T2 sequence (P07949 29-1114): as the sequence (P07949 29-1114 V804L) above, with L776V counted along it

For `Cc1cc(Nc2cc(C)[nH]n2)nc([C@@]2(O)CC[C@@H](C(=O)N[C@@H](C)c3ccc(-n4cc(F)cn4)nc3)C2)c1` [Compound 119], the IC50 in assay [1] and in assay [2] was less than 10 nM each time.
As for `CCOc1ccc(CNC(=O)C2CC[C@](O)(c3cc(C)cc(Nc4cc(C5CC5)[nH]n4)n3)C2)cc1` (stereo partly shown) [Compound 105], the IC50 in assay [1] and in assay [2] was less than 10 nM in each case.
As to `Cc1cc(Nc2cc(C)[nH]n2)nc([C@@]2(O)CC[C@H](C(=O)N[C@@H](C)c3ccc(-n4cc(F)cn4)nc3)C2)c1` (single isomer, unassigned) [Compound 122], the IC50 in assay [1] and in assay [2] was less than 10 nM in each case.
Turning to `Cc1cc(Nc2cc(C)[nH]n2)nc(C2CCC(C(=O)N[C@@H](C)c3ccc(-n4cc(F)cn4)nc3)C2)n1` (mixture of isomers) [Compound 106, N—((S)-1-(6-(4-fluoro-1H-pyrazol-1-yl)pyridin-3-yl)ethyl)-3-(4-methyl-6-((5-methyl-1H-pyrazol-3-yl)amino)pyrimidin-2-yl)cyclopentane-1-carboxamide], the IC50 in assay [1] and in assay [2] was less than 10 nM in each case.
Turning to `Cc1cc(Nc2cc(C)[nH]n2)nc([C@@H]2CC[C@](C)(C(=O)N[C@@H](C)c3ccc(-n4cc(F)cn4)nc3)C2)n1` [Compound 112], the IC50 in assay [1] was 10 to 100 nM; in assay [2], more than 100 nM.
For the molecule `Cc1cc(Nc2cc(C)[nH]n2)nc([C@]2(O)CC[C@@](C)(C(=O)N[C@@H](C)c3ccc(-n4cc(F)cn4)nc3)C2)c1` [Compound 128], the IC50 in assay [1] and in assay [2] was less than 10 nM throughout.
For `Cc1cc(Nc2cc(C)[nH]n2)nc([C@H]2CC[C@](C)(C(=O)N[C@@H](C)c3ccc(-n4cc(F)cn4)nc3)C2)n1` [Compound 114], the IC50 in assay [1] and in assay [2] was less than 10 nM each time.
As to `Cc1cc(Nc2cc(C)[nH]n2)nc(C2(O)CCC(C(=O)N[C@@H](C)c3ccc(-n4cc(F)cn4)nc3)C2)c1` (stereo partly shown) [Compound 118], the IC50 in assay [1] and in assay [2] was less than 10 nM each time.
For the molecule `Cc1cc(Nc2cc(C3CC3)[nH]n2)nc([C@@]2(O)CC[C@H](C(=O)NCc3ccccc3)C2)c1` [Compound 100], the IC50 in assay [1] is less than 10 nM; in assay [2], 10 to 100 nM.
On to `Cc1cc(Nc2cc(C)[nH]n2)nc([C@]2(O)CC[C@@H](C(=O)N[C@@H](C)c3ccc(-n4cc(F)cn4)nc3)C2)c1` (single isomer, unassigned) [Compound 121], for which the IC50 in assay [2] is less than 10 nM.
On to `Cc1cc(Nc2cc(C)[nH]n2)nc([C@]2(O)CC[C@@H](C(=O)NCc3ccc(-n4cccn4)nc3)C2)c1` [Compound 103], for which the IC50 in assay [1] and in assay [2] was less than 10 nM in each case.
Consider `Cc1cc(Nc2cc(C)[nH]n2)nc([C@H]2CC[C@H](C(=O)N[C@@H](C)c3ccc(-n4cc(F)cn4)nc3)C2)n1` (single isomer, unassigned) [Compound 110], for which the IC50 in assay [1] and in assay [2] was less than 10 nM throughout.
With `Cc1cc(Nc2cc(C)[nH]n2)nc([C@@]2(O)CC[C@](C)(C(=O)N[C@@H](C)c3ccc(-n4cc(F)cn4)nc3)C2)c1` [Compound 129], the IC50 in assay [1] and in assay [2] was less than 10 nM each time.
For the molecule `Cc1cc(Nc2cc(C)[nH]n2)nc([C@H]2CC[C@@H](C(=O)N[C@@H](C)c3ccc(-n4cc(F)cn4)nc3)C2)n1` (single isomer, unassigned) [Compound 108], the IC50 in assay [1] and in assay [2] was 10 to 100 nM each time.
`Cc1cc([C@@H]2CC[C@@](C)(C(=O)N[C@@H](C)c3ccc(-n4cc(F)cn4)nc3)C2)nc(Nc2cc(C)[nH]n2)n1` (single isomer, unassigned) [Compound 116, (1R,3R or 1S,3S)—N—((S)-1-(6-(4-fluoro-1H-pyrazol-1-yl)pyridin-3-yl)ethyl)-1-methyl-3-(6-methyl-2-((5-methyl-1H-pyrazol-3-yl)amino)pyrimidin-4-yl)cyclopentane-1-carboxamide]: the IC50 in assay [1] and in assay [2] was less than 10 nM throughout.
Regarding `Cc1cc(Nc2cc(C)[nH]n2)nc([C@H]2CC[C@@](C)(C(=O)N[C@@H](C)c3ccc(-n4cc(F)cn4)nc3)C2)n1` [Compound 113], the IC50 in assay [1] and in assay [2] was 10 to 100 nM in each case.
On to `Cc1cc(Nc2cc(C)[nH]n2)nc([C@@]2(O)CC[C@@H](C(=O)NCc3ccc(-n4cccn4)nc3)C2)c1` [Compound 101], for which the IC50 in assay [1] was less than 10 nM; in assay [2], 10 to 100 nM.
Taken in the same sequence, the figures for `Cc1cc(Nc2cc(C)[nH]n2)nc([C@]2(O)CC[C@H](C(=O)N[C@@H](C)c3ccc(-n4cc(F)cn4)nc3)C2)c1` [Compound 120] were 10 to 100 nM and 10 to 100 nM.
Turning to `Cc1cc(Nc2cc(C)[nH]n2)nc([C@@]2(O)CC[C@H](C(=O)N[C@@H](C)c3cnc(-n4cc(F)cn4)cn3)C2)c1` [Compound 124], the IC50 in assay [1] and in assay [2] was less than 10 nM in each case.
On to `Cc1cc(Nc2cc(C)[nH]n2)nc(C2(O)CCC(C(=O)NCc3ccc(-n4nc(C)cc4C)nc3)C2)c1` (mixture of isomers) [Compound 111], for which the IC50 in assay [1] and in assay [2] was less than 10 nM in each case.
On to `Cc1cc(Nc2cc(C)[nH]n2)nc([C@@H]2CC[C@H](C(=O)N[C@@H](C)c3ccc(-n4cc(F)cn4)nc3)C2)n1` (single isomer, unassigned) [Compound 107], for which the IC50 in assay [1] and in assay [2] was 10 to 100 nM each time.
With `Cc1cc(Nc2cc(C)[nH]n2)nc([C@]2(O)CC[C@H](C(=O)NCc3ccc(-n4cccn4)nc3)C2)c1` [Compound 102], the IC50 in assay [1] and in assay [2] was 10 to 100 nM throughout.
For `Cc1cc(Nc2cc(C)[nH]n2)nc(C2(O)CCC(C(=O)NCc3ccc(-n4cc(Cl)cn4)nc3)C2)c1` (mixture of isomers) [Compound 126], the IC50 in assay [1] and in assay [2] was less than 10 nM in each case.
As to `Cc1cc(Nc2cc(C)[nH]n2)nc([C@@]2(O)CC[C@H](C(=O)NCc3ccc(-n4cccn4)nc3)C2)c1` [Compound 104], the figures for the IC50 in assay [1] and in assay [2] were less than 10 nM and 10 to 100 nM, respectively.
Taken in the same sequence, the figures for `Cc1cc(Nc2cc(C)[nH]n2)nc([C@@H]2CC[C@@H](C(=O)N[C@@H](C)c3ccc(-n4cc(F)cn4)nc3)C2)n1` (single isomer, unassigned) [Compound 109] were less than 10 nM and less than 10 nM.
Regarding `Cc1cc([C@@H]2CC[C@](C)(C(=O)N[C@@H](C)c3ccc(-n4cc(F)cn4)nc3)C2)nc(Nc2cc(C)[nH]n2)n1` (single isomer, unassigned) [Compound 117, (1R,3R or 1S,3S)—N—((S)-1-(6-(4-fluoro-1H-pyrazol-1-yl)pyridin-3-yl)ethyl)-1-methyl-3-(6-methyl-2-((5-methyl-1H-pyrazol-3-yl)amino)pyrimidin-4-yl)cyclopentane-1-carboxamide], the IC50 in assay [1] and in assay [2] was less than 10 nM in each case.
As to `Cc1cc(Nc2cc(C)[nH]n2)nc([C@]2(O)CC[C@@H](C(=O)N[C@@H](C)c3cnc(-n4cc(F)cn4)cn3)C2)c1` [Compound 125], the IC50 in assay [1] was less than 10 nM; in assay [2], 10 to 100 nM.
As for `Cc1cc(Nc2cc(C)[nH]n2)nc([C@@H]2CC[C@@](C)(C(=O)N[C@@H](C)c3ccc(-n4cc(F)cn4)nc3)C2)n1` [Compound 115], the IC50 in assay [2] was less than 10 nM.
As to `Cc1cc(Nc2cc(C3CC3)[nH]n2)nc([C@@]2(O)CC[C@H](C(=O)NCc3ccc(-n4cc(F)cn4)nc3)C2)c1` [Compound 127], the half-maximal inhibitory concentration (IC50) in assay [1] and in assay [2] was less than 10 nM throughout.
Take `Cc1cc(Nc2cc(C)[nH]n2)nc(C2(O)CCC(C(=O)N[C@@H](C)c3cnc(-n4cc(F)cn4)cn3)C2)c1` (mixture of isomers) [Compound 123]: the IC50 in assay [1] and in assay [2] was less than 10 nM in each case.

A word on the IC50: it is the concentration at which inhibition is half-maximal.

The record behind these values is US10035789B2, “Compounds useful for treating disorders related to RET” (BLUEPRINT MEDICINES CORPORATION, priority 2016, dated 2018).
